Patent US20210100905A1, “APPLICATION OF COMPOUND OR TRADITIONAL CHINESE MEDICINE EXTRACT IN PREPARATION OF NUCLEIC ACID DELIVERY AGENT, AND RELATED PRODUCTS” (INSTITUTE OF BASIC MEDICAL SCIENCES CHINESE ACADEMY OF …, priority 2018, published 2021)

Assay: In vivo delivery experiment of lipid nucleic acid mixture (Example 13)
Design: species or system C57 mice
Settings: oral administration, 6 hours; for delivery effect into mouse blood and tissues (heart, spleen, kidney or intestine) compared with POPC: FIG. 117a-146b, 100 μg lipid : 1 nmol sRNA; for delivery of small RNA (PGY-sRNA-26) into heart / delivery of small RNA (PGY-sRNA-26) into intestine / delivery of small RNA (PGY-sRNA-26) into spleen / delivery of small RNA (PGY-sRNA-26) into kidney / delivery of small RNA (PGY-sRNA-26) into blood: 100 μg lipid : 1 nmol sRNA per mouse, 90° C. 15 min
Procedure: 1. Experiment animals: C57 mice, male, approximately 6 weeks old, 20-24g. Mice were raised in the SPF room of the Animal Center of the Institute of Basic Medical Sciences of Chinese Academy of Medical Sciences. The mice were fasted for 12 hours before intragastric administration.
2. Preparation of the mixture of lipid and small RNA: the prepration was conducted on the basis of a dose of 100 μg lipid: lnmol single stranded small RNA PGY-sRNA-26 per mouse as follows: lnmol of each sRNA was dissolved with 500 μl DEPC water in a glass tube, 100 μg corresponding lipid solution No.33, No.35,No.37, No.42, No.43, No.44, No.45, No.46, No.47, No.48, No.49, No.50, No.51, No.52, No.53, No.54, No.55, No.56, No.57, No.58, No.59, No.60, No.61, No.62, No.65, No.66, No.67, No.68, No.69 or No.70 (lipid chloroform solution with a concentration as shown in Table 1-1) was added, pipetted to mix thoroughly. The solution was heated in water bath at 90° C. for 15 min, naturally cooled down, and was administered via gavage.
1) Tissue sampling and extraction of RNA: 6 hours after gavage in mice, 500 μl of blood was taken from the eyeball, and was added 1.5 ml Trizol Reagent LS to thoroughly mix and lyse. Tissue sampling: the mouse was sarcrified by breaking its neck, and the thoracic and abdominal cavities of the mouse was exposed to remove the heart/whole spleen/two kidneys/intestine (5 cm of upper end), which was immediately added 2 ml Trizol Reagent (purchased from Invitrogen) and homogenized until complete lysis with a tissue homogenizer.
2) Reverse transcription of sRNA to cDNA: Reverse Transcription Kit (High-Capacity cDNA Reverse Transcription Kits, Applied Biosystems, cat. no. 4368813), was used to reverse transcribe the total RNA to cDNA, and the reverse system was as follows: template RNA (150 ng/μL) 10 μL, 10× RT buffer, 2.0 μL, 25× dNTP Mix (100 mM) 0.8 μL, random primers 2.0 μL, the Multi Scribe™ reverse Transcriptase 1.0 RNase inhibitor 1.0 μL, nuclease-free H2O 3.2 μL. After a brief centrifugation, the reaction was loaded in a PCR reactor. The reaction conditions were as follows: (1) 25° C., 10 min; (2) 37° C., 120 min; (3) 85° C., 5 min; (4) 4° C., termination of the reaction. After the reaction, 20 μL RNase-free ddH2O was added to make up the final volume to 40 μL.
LightCycler 480 fluorescence quantitative PCR instrument was used, and the PCR reaction conditions were: 95° C. , 5 min for pre-denaturation, followed by the PCR amplification cycle: (1) 95° C., 10 s; (2) 55° C., 10 s; (3) 72° C., 20 s; a total of 40 cycles; 40° C. for 10 s in the end to cool down. The forward primer and reverse primer of the amplification reaction were designed and synthesized by Beijing Qing Ke New Industrial Biotechnology Co., Ltd. (U6 F primer: GTGCAGGGTCCGAGGT (SEQ ID NO: 24), PGY-sRNA-26F primer: […] (SEQ ID NO: 34), reverse primer miR all rev: GTGCACGCTCCGAGGT (SEQ ID NO: 26)).
3) The relative expression amount was calculated by the 2-ΔCt method.
The data were represented in the form of mean±SEM. The parameter difference between the experimental group and the control group was evaluated by unpaired t test. The data were statistically analyzed by GraphPad Prism software, and P<0.05 was considered statistically significant.

CC/C=C\C/C=C\C/C=C\C/C=C\C/C=C\CCCC(=O)OCC(COC(=O)CCCCCCC/C=C\C/C=C\CCCCC)OC(=O)CCCCCCC/C=C\C/C=C\CCCCC (stereo not shown) [No. 68, Triglyceride (20:5/18:2/ 18:2)]
delivery effect into mouse blood and tissues (heart, spleen, kidney or intestine) compared with POPC: significantly better than or equivalent to that of POPC | delivery of small RNA (PGY-sRNA-26) into heart: delivers small RNA | delivery of small RNA (PGY-sRNA-26) into intestine: delivers small RNA | delivery of small RNA (PGY-sRNA-26) into spleen: delivers small RNA

CC/C=C\C/C=C\C/C=C\CCCCCCCC(=O)OCC(COC(=O)CCCCCCC/C=C\CCCCCCCC)OC(=O)CCCCCCC/C=C\C/C=C\CCCCC (stereo not shown) [No. 57, Triglyceride (18:1/18:2/ 18:3)]
delivery effect into mouse blood and tissues (heart, spleen, kidney or intestine) compared with POPC: significantly better than or equivalent to that of POPC | delivery of small RNA (PGY-sRNA-26) into kidney: delivers small RNA

CC/C=C\C/C=C\C/C=C\CCCCCCCC(=O)OCC(COC(=O)CCCCCCCCCCCCCCC)OC(=O)CCCCCCC/C=C\C/C=C\CCCCC (stereo not shown) [No. 56, Triglyceride (16:0/18:2/ 18:3)]
delivery effect into mouse blood and tissues (heart, spleen, kidney or intestine) compared with POPC: significantly better than or equivalent to that of POPC | delivery of small RNA (PGY-sRNA-26) into blood: delivers small RNA | delivery of small RNA (PGY-sRNA-26) into heart: delivers small RNA

CCCCCCCC/C=C\CCCCCCCC(=O)OC[C@H](COP(=O)(O)OCCN(C)C)OC(=O)CCCCCCCCCCCCC [No. 61, 1-oleoyl-2-myristoyl-sn-glycero-3-phospho-ethanolamine-N,N-dimethyl]
delivery effect into mouse blood and tissues (heart, spleen, kidney or intestine) compared with POPC: significantly better than or equivalent to that of POPC | delivery of small RNA (PGY-sRNA-26) into heart: delivers small RNA | delivery of small RNA (PGY-sRNA-26) into intestine: delivers small RNA | delivery of small RNA (PGY-sRNA-26) into kidney: delivers small RNA

CCCCC/C=C\C/C=C\CCCCCCCC(=O)OC[C@H](CO)OC(=O)CCCCCCC/C=C\C/C=C\CCCCC [No. 35, (2S)-1-hydroxy-3-[(9Z,12Z)-octadeca-9,12-dienoyloxy] propan-2-yl (9Z,12Z)-octadeca-9,12-dienoate]
delivery effect into mouse blood and tissues (heart, spleen, kidney or intestine) compared with POPC: significantly better than or equivalent to that of POPC | delivery of small RNA (PGY-sRNA-26) into heart: delivers small RNA | delivery of small RNA (PGY-sRNA-26) into kidney: delivers small RNA

Dilinolenin [No. 70]
delivery effect into mouse blood and tissues (heart, spleen, kidney or intestine) compared with POPC: significantly better than or equivalent to that of POPC | delivery of small RNA (PGY-sRNA-26) into heart: delivers small RNA | delivery of small RNA (PGY-sRNA-26) into spleen: delivers small RNA

CCCCCCCCCCCCCCCC(=O)N[C@@H](CO)[C@H](O)CCCCCCCCCCCCC [No. 53, C16 dihydroceramide (d16:0/16:0)]
delivery effect into mouse blood and tissues (heart, spleen, kidney or intestine) compared with POPC: significantly better than or equivalent to that of POPC | delivery of small RNA (PGY-sRNA-26) into blood: delivers small RNA | delivery of small RNA (PGY-sRNA-26) into heart: delivers small RNA | delivery of small RNA (PGY-sRNA-26) into kidney: delivers small RNA

CCCCCC/C=C\CCCCCCCCCC(=O)OC[C@H](COP(=O)(O)OCC[N+](C)(C)C)OC(=O)CCCCCCC/C=C\CCCCCC (stereo in doubt) [No. 69, 1-vaccenoyl-2-palmitoleoyl-sn-glycero-3-phosphocholine]
delivery effect into mouse blood and tissues (heart, spleen, kidney or intestine) compared with POPC: significantly better than or equivalent to that of POPC | delivery of small RNA (PGY-sRNA-26) into kidney: delivers small RNA | delivery of small RNA (PGY-sRNA-26) into spleen: delivers small RNA

CC/C=C\C/C=C\C/C=C\CCCCCCCC(=O)OCC(O)COC(=O)CCCCCCC/C=C\C/C=C\CCCCC (stereo not shown) [No. 45, 1-Linolein-3-Linolenin]
delivery effect into mouse blood and tissues (heart, spleen, kidney or intestine) compared with POPC: significantly better than or equivalent to that of POPC | delivery of small RNA (PGY-sRNA-26) into heart: delivers small RNA | delivery of small RNA (PGY-sRNA-26) into intestine: delivers small RNA | delivery of small RNA (PGY-sRNA-26) into kidney: delivers small RNA | delivery of small RNA (PGY-sRNA-26) into spleen: delivers small RNA

CCCCCC/C=C\CCCCCCCC(=O)OC[C@H](COP(=O)(O)OCCN(C)C)OC(=O)CCCCCCCCCCCCC [No. 59, 1-palmitoleoyl-2-myristoyl-sn-glycero-3-phospho-ethanolamine-N,N-dimethyl]
delivery effect into mouse blood and tissues (heart, spleen, kidney or intestine) compared with POPC: significantly better than or equivalent to that of POPC | delivery of small RNA (PGY-sRNA-26) into intestine: delivers small RNA

CC/C=C\C/C=C\C/C=C\CCCCCCCC(=O)OCC(COC(=O)CCCCCCCCCCCCCCCCC)OC(=O)CCCCCCC/C=C\C/C=C\CCCCC (stereo not shown) [No. 66, Triglyceride (18:0/18:2/ 18:3)]
delivery effect into mouse blood and tissues (heart, spleen, kidney or intestine) compared with POPC: significantly better than or equivalent to that of POPC | delivery of small RNA (PGY-sRNA-26) into blood: delivers small RNA | delivery of small RNA (PGY-sRNA-26) into heart: delivers small RNA | delivery of small RNA (PGY-sRNA-26) into intestine: delivers small RNA

CCCCCCCCCCCCCCCCCC(=O)OCC(COC(=O)CCCCCCCCCCCCCCCCC)OC(=O)CCCCCCCCCCCCCCC [No. 33, 1,3-Stearin-2-Palmitin 1,3-Octadecanoyl-2-Palmitoyl-glycerol]
delivery effect into mouse blood and tissues (heart, spleen, kidney or intestine) compared with POPC: significantly better than or equivalent to that of POPC | delivery of small RNA (PGY-sRNA-26) into blood: delivers small RNA | delivery of small RNA (PGY-sRNA-26) into heart: delivers small RNA | delivery of small RNA (PGY-sRNA-26) into kidney: delivers small RNA

CC/C=C\C/C=C\C/C=C\C/C=C\C/C=C\CCCC(=O)OCC(COC(=O)CCCCCCC/C=C\CCCCCCCC)OC(=O)CCCCCCC/C=C\C/C=C\CCCCC (stereo not shown) [No. 67, Triglyceride (18:1/18:2 /20:5)]
delivery effect into mouse blood and tissues (heart, spleen, kidney or intestine) compared with POPC: significantly better than or equivalent to that of POPC | delivery of small RNA (PGY-sRNA-26) into heart: delivers small RNA | delivery of small RNA (PGY-sRNA-26) into intestine: delivers small RNA | delivery of small RNA (PGY-sRNA-26) into spleen: delivers small RNA

Mono- docosadienoin [No. 42]
delivery effect into mouse blood and tissues (heart, spleen, kidney or intestine) compared with POPC: significantly better than or equivalent to that of POPC | delivery of small RNA (PGY-sRNA-26) into kidney: delivers small RNA | delivery of small RNA (PGY-sRNA-26) into spleen: delivers small RNA

CCCCCCCCCCCCCCCCCC(=O)N[C@@H](CO)[C@H](O)CCCCCCCCCCCCCCCCC [No. 54, C18 dihydroceramide (d20:0/18:0)]
delivery effect into mouse blood and tissues (heart, spleen, kidney or intestine) compared with POPC: significantly better than or equivalent to that of POPC | delivery of small RNA (PGY-sRNA-26) into blood: delivers small RNA | delivery of small RNA (PGY-sRNA-26) into kidney: delivers small RNA

CCCCCC/C=C\CCCCCCCC(=O)OC[C@H](COP(=O)(O)OCC)OC(=O)CCCCCCC/C=C\CCCCCC [No. 58, 1,2-dipalmitoleoyl-sn-glycero-3-phosphoethanol]
delivery effect into mouse blood and tissues (heart, spleen, kidney or intestine) compared with POPC: significantly better than or equivalent to that of POPC | delivery of small RNA (PGY-sRNA-26) into heart: delivers small RNA | delivery of small RNA (PGY-sRNA-26) into intestine: delivers small RNA

CCCCCCCCCCCCCCCCCCC[C@@H](O)[C@H](CO)NC(=O)CCCCCCCCCCCCCCCCC [No. 55, C18 dihydroceramide (d22:0/18:0)]
delivery effect into mouse blood and tissues (heart, spleen, kidney or intestine) compared with POPC: significantly better than or equivalent to that of POPC | delivery of small RNA (PGY-sRNA-26) into blood: delivers small RNA | delivery of small RNA (PGY-sRNA-26) into heart: delivers small RNA | delivery of small RNA (PGY-sRNA-26) into kidney: delivers small RNA
